What was measured:
[1] = system: B1R in primary microglial cells; experiment: B1R induction and BdABK labeling in primary cultured microglial cells; type: cell-based, rat; conditions: 300 nM BK, 24 h
Procedure: Mixed glial cultures were prepared following the protocol of McCarthy and de Vellis with some modifications. Briefly, forebrains were dissected out from one litter of 2-day-old Sprague-Dawley rat pups and the meninges were stripped off before enzymatic and mechanical dissociation. For enzymatic dissociation, HBSS containing 0.25% trypsin (Gibco 15090-046) was used. The tissue-trypsin suspension was incubated for 20 min at 37°C in a water bath with intermittent shaking. After the waiting time for the trypsin digestion is over we added to the tissue-trypsin suspension a mixture of prewarmed DMEM/Dnase I (Sigma DN-25, Dnase I final concentration 0. 25 mg/ml) followed by an incubation for 4 min at 37°C. The resulting suspension was dispersed by a mild mechanical trituration which consisted in the passage through 18-, 22- and 25- gauge needles. This cell suspension was then filtred through 70 μm strainer (BD Falcon 352350). After extensive washs in prewarmed HBSS, these dissociated cells were resuspended and plated in 75-cm^2 Falcon tissue-culture flasks (BD Biosciences) previously coated with 10 μg/ml poly-D-lysine (PDL). These mixed cells were growing at 37°C and 5% CO2 in DMEM (Gibco) supplemented with 10% FBS, penicillin (100 units/ml), and streptomycin ([…]). The media was changed every 2 or 3 days thereafter. […]

[2] = system: B1R in primary microglial cells; conditions: cited from earlier work
Excerpt: (§1) NF-κB upregulates B1R upon binding to its nuclear promoter.

B2 receptors = conditions: via B2 receptors, protein kinase C; cited from earlier work
Excerpt: as §1

Substance: BK: bradykinin, preferential B2R agonist; used to induce B1R in microglia (RPPGFSPFR; Bradykinin; UniProt P01042 381-389, looked up)
- induction of B1R in primary microglial cells [1]: B1R was induced
- B1R expression in cultured rat microglia exposed to BK [2]: B1R can be expressed in cultured rat microglia
- intracellular calcium and NF-κB activation (B2 receptors): induces elevation of intracellular calcium leading to the phosphorylation and activation of NF-κB

Reference: PMC2667487, “Cellular localization of kinin B1 receptor in the spinal cord of streptozotocin-diabetic rats with a fluorescent [N^α-Bodipy]-des-Arg^9-bradykinin” (Journal of Neuroinflammation, 2009)
